Experimental data from US20250213707A1, “COMPOUND FOR INCREASING EFFICACY OF ONCOLYTIC VIRUSES” (ABLEVIA BIOTECH GMBH, priority 2022, published 2025).
Ends that are not written are not given here.

How the values were obtained:
[1] = test system: IgG from human donors (anti-AAV antibodies); experiment: Screen for anti-AAV antibodies in human sera, 2452 linear 15-amino-acid AAV peptides on microarrays (Table 1); assay type: binding; set-up: key to group I: X: the deduplicated aggregate of the respective top 10 peptide hits for each donor was compiled and designated as group I; key to group II: X: the deduplicated aggregate of the respective top 25 peptide hits for each donor was compiled and designated as group II; key to group III: X: the deduplicated aggregate of the respective top 50 peptide hits for each donor was compiled and designated as group III; settings: human donor IgG binding to linear 15-amino-acid AAV peptides on microarray, fluorescence; for group II: membership in deduplicated aggregate of top 25 peptide hits for each donor; for group III: membership in deduplicated aggregate of top 50 peptide hits for each donor; for group I: membership in deduplicated aggregate of top 10 peptide hits for each donor
In short: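 Protein G-purified IgG from human donor blood incubated with microarrays of 2452 linear 15-mer peptides from 16 AAVs; binding read by fluorescence. Background-subtracted signals ranked per donor, with top 10, 25, 50 and 250 hits pooled and deduplicated into groups I-IV.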

[2] = test system: polyclonal antibody ab6982; experiment: Epitope mapping of polyclonal antibody ab6982 against cyclic peptides of Ad5 fiber and hexon (peptide array); assay type: binding, rabbits; settings: cyclic peptides of fiber protein (clusters 1-7)

## PQILIKNTPVPANP (REGION 1..14: note = peptide derived from viral capsid protein) [SEQ ID NO: 2006]
[1]
  group II: X
  group III: X
[2]
  antibody binding signal ranking from the microarray experiment: 006

## TVQIFADSSYELPY (REGION 1..14: note = peptide derived from viral capsid protein) [SEQ ID NO: 2043]
[1]
  group II: X
  group III: X
[2]
  antibody binding signal ranking from the microarray experiment: 136

## PYLRYHADAEFQER [SEQ ID NO: 2013]
[1]
  group II: X
  group III: X
[2]
  antibody binding signal ranking from the microarray experiment: 118

## TTSANNLLFTSEEE [SEQ ID NO: 2056]
[1]
  group II: X
  group III: X
[2]
  antibody binding signal ranking from the microarray experiment: 078

## LFNIQVKEVTTNDG (REGION 1..14: note = peptide derived from viral capsid protein) [SEQ ID NO: 2047]
[1]
  group II: X
  group III: X
[2]
  antibody binding signal ranking from the microarray experiment: 172

## NNFQFSYTFEDVPF (REGION 1..14: note = peptide derived from viral capsid protein) [SEQ ID NO: 1990]
[1]
  group I: X
  group II: X
  group III: X
[2]
  antibody binding signal ranking from the microarray experiment: 003

## QQRLSKTANDNNNS [SEQ ID NO: 1993]
[1]
  group I: X
  group II: X
  group III: X
[2]
  antibody binding signal ranking from the microarray experiment: 019

## MNPGPAMASHKEGE [SEQ ID NO: 2017]
[1]
  group II: X
  group III: X
[2]
  antibody binding signal ranking from the microarray experiment: 011

## THSTLDGRWSALTP (REGION 1..14: note = peptide derived from viral capsid protein) [SEQ ID NO: 2042]
[1]
  group II: X
  group III: X
[2]
  antibody binding signal ranking from the microarray experiment: 117

## NEADAAALEHDKAY (REGION 1..14: note = peptide derived from viral capsid protein) [SEQ ID NO: 2004]
[1]
  group II: X
  group III: X
[2]
  antibody binding signal ranking from the microarray experiment: 163

## YNLQEIVPGSVWME [SEQ ID NO: 2063]
[1]
  group II: X
  group III: X
[2]
  antibody binding signal ranking from the microarray experiment: 143

## DKFFPMSGVMIFGK (not fully specified) [SEQ ID NO: 2044]
[1]
  group II: X
  group III: X
[2]
  antibody binding signal ranking from the microarray experiment: 147

## LSKTANDNNNSNFP (REGION 1..14: note = peptide derived from viral capsid protein) [SEQ ID NO: 1988]
[1]
  group I: X
  group II: X
  group III: X
[2]
  antibody binding signal ranking from the microarray experiment: 001

## SNYNKSVNVDFTVD (REGION 1..14: note = peptide derived from viral capsid protein) [SEQ ID NO: 1996]
[1]
  group I: X
  group II: X
  group III: X
[2]
  antibody binding signal ranking from the microarray experiment: 040

## NLQAANLALGETTR [SEQ ID NO: 2020]
[1]
  group II: X
  group III: X
[2]
  antibody binding signal ranking from the microarray experiment: 016

## KKRILEPLGLVEEG [SEQ ID NO: 2034]
[1]
  group II: X
  group III: X
[2]
  antibody binding signal ranking from the microarray experiment: 066

## SQSLDRLMNPLLDQ [SEQ ID NO: 2054]
[1]
  group II: X
  group III: X
[2]
  antibody binding signal ranking from the microarray experiment: 028

## SKTANDNNNSNFPW (REGION 1..14: note = peptide derived from viral capsid protein) [SEQ ID NO: 1995]
[1]
  group I: X
  group II: X
  group III: X
[2]
  antibody binding signal ranking from the microarray experiment: 035

## QSSNTAPTTRTVND (REGION 1..14: note = peptide derived from viral capsid protein) [SEQ ID NO: 1994]
[1]
  group I: X
  group II: X
  group III: X
[2]
  antibody binding signal ranking from the microarray experiment: 024
